Earlier results in patent US7449194B2, “Antimicrobial body covering articles” (priority 2002, dated 2008).

Details: in water; 21° C.

## [O][Cl+][O-] [chlorine dioxide]
  partition coefficient: 40
